The nature of data set [1]: Solubility of crystalline modifications of Febuxostat in phosphate buffer. Type of data set: physicochemical.
Data set [2] in a line: In-vitro dissolution of tablets, Ph. Eur. 2.9.3 / USP <711> Method 2 (Paddle Apparatus). Type of data set: physicochemical. As to conditions: Figures 2 and 3; same excipient mixture as example 1. On the procedure:
The in-vitro dissolution of tablets according to examples 2 to 5 were analyzed according to Ph. […]

In general, Solubility refers to the dissolved amount per volume that the medium holds.

Structures are written as SMILES. In brackets after ≈: the same amount, converted by molar mass. Read-outs that look alike come from different tables or passages of the source.

Regarding `Cc1nc(-c2ccc(OCC(C)C)c(C#N)c2)sc1C(=O)O` [Form "F10", 2-[3-cyano-4-(2-methylpropoxy)phenyl]-4-methylthiazole-5-carboxylic acid], the Solubility in data set [1] (aqueous buffer, n=3, read-out: Solubility) was found to be 260 µg/mL (≈ 822 µM).
With `Cc1nc(-c2ccc(OCC(C)C)c(C#N)c2)sc1C(=O)O` [Form "A", 2-[3-cyano-4-(2-methylpropoxy)phenyl]-4-methylthiazole-5-carboxylic acid], in data set [2], the “influence on dissolution profile of interchange of crystalline form F10 by another crystalline form” value is given as “does not influence the dissolution profile significantly”. For the same compound, in data set [1] (n=3), the Solubility is 0,10 mg/ml.
As for `Cc1nc(-c2ccc(OCC(C)C)c(C#N)c2)sc1C(=O)O` [Form "G", 2-[3-cyano-4-(2-methylpropoxy)phenyl]-4-methylthiazole-5-carboxylic acid], in data set [2], the “influence on dissolution profile of interchange of crystalline form F10 by another crystalline form” value is “does not influence the dissolution profile significantly”. In data set [1] (n=3), the Solubility is recorded as 0,13 mg/ml.
Taken in the same sequence, the figures for `Cc1nc(-c2ccc(OCC(C)C)c(C#N)c2)sc1C(=O)O` [Form "II", 2-[3-cyano-4-(2-methylpropoxy)phenyl]-4-methylthiazole-5-carboxylic acid] were “does not influence the dissolution profile significantly” and 0,36 mg/ml.

The values above are taken from EP3002006A1, “Pharmaceutical composition capable for the incorporation Febuxostat in the crystalline modifications F10, II, G and A” (Bluepharma - Industria Farmacêutica, S.A., priority 2014, dated 2016).
